± gives the standard deviation of the averaged measurements.
Key:
17-AAG = compound: C=CCNC1=C2C[C@@H](C)C[C@H](OC)[C@H](O)[C@@H](C)/C=C(\C)[C@H](OC(N)=O)[C@@H](OC)/C=C\C=C(/C)C(=O)NC(=CC1=O)C2=O [17-AAG]; assay: surviving fraction relative to DMSO-only wells; higher = less growth inhibition; conditions: exposure time: 5 days
Summary of the method: (§1)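 Tumour cell lines in log phase were plated in 384-well plates at 250–500 cells per well, then, after 24 hours, exposed continuously for five days to inhibitors at 0.5, 1, 5, 10, 50, 100, 500 and 1000 nM. Viability came from CellTiter-Glo luminescence, and surviving fraction is that signal normalised to the median of DMSO-only wells. Plates were read after 10 minutes at room temperature, and each line, screened three times, was kept only when replicate Pearson r was >0.7 and median Z' was >0.3.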

SALINOMYCIN = compound: CC[C@@H](C(=O)[C@@H](C)[C@@H](O)[C@H](C)[C@@H]1O[C@@H]([C@@H](CC)C(=O)O)CC[C@@H]1C)[C@H]1O[C@]2(C=C[C@@H](O)[C@]3(CC[C@@](C)([C@H]4CC[C@](O)(CC)[C@H](C)O4)O3)O2)[C@H](C)C[C@@H]1C [SALINOMYCIN]; assay: as above; conditions: exposure time: 5 days
Summary of the method: as §1

Test System | surviving fraction (17-AAG; 0.5 nM) | surviving fraction (17-AAG; 1 nM) | surviving fraction (17-AAG; 5 nM) | surviving fraction (17-AAG; 10 nM) | surviving fraction (17-AAG; 50 nM) | surviving fraction (17-AAG; 100 nM) | surviving fraction (17-AAG; 500 nM) | surviving fraction (17-AAG; 1000 nM) | surviving fraction (SALINOMYCIN; 0.5 nM) | surviving fraction (SALINOMYCIN; 1 nM) | surviving fraction (SALINOMYCIN; 5 nM) | surviving fraction (SALINOMYCIN; 10 nM) | surviving fraction (SALINOMYCIN; 50 nM) | surviving fraction (SALINOMYCIN; 100 nM) | surviving fraction (SALINOMYCIN; 500 nM) | surviving fraction (SALINOMYCIN; 1000 nM)
NOS1 BONE | 0.804 ± 0.1 | 0.831 ± 0.081 | 0.759 ± 0.069 | 0.651 ± 0.063 | 0.379 ± 0.023 | 0.215 ± 0.027 | 0.0853 ± 0.0021 | 0.0827 ± 0.008 | 1.01 ± 0.071 | 1.07 ± 0.15 | 1.09 ± 0.025 | 1.05 ± 0.066 | 1.06 ± 0.083 | 1.09 ± 0.062 | 0.0907 ± 0.013 | 0.0537 ± 0.007
NY BONE | 0.9133 ± 0.0047 | 0.924 ± 0.024 | 0.975 ± 0.0089 | 0.771 ± 0.054 | 0.0967 ± 0.0049 | 0.11 ± 0.0063 | 0.068 ± 0.0046 | 0.0527 ± 0.0045 | 0.929 ± 0.024 | 0.9297 ± 0.0087 | 0.965 ± 0.018 | 0.928 ± 0.021 | 0.851 ± 0.028 | 0.654 ± 0.0095 | 0.241 ± 0.009 | 0.136 ± 0.0072
OS25HAL BONE | 0.9 ± 0.024 | 0.897 ± 0.041 | 0.909 ± 0.05 | 0.894 ± 0.05 | 0.948 ± 0.015 | 0.762 ± 0.13 | 0.146 ± 0.0098 | 0.141 ± 0.0098 | 0.952 ± 0.016 | 0.943 ± 0.012 | 0.964 ± 0.02 | 0.932 ± 0.02 | 0.979 ± 0.031 | 0.792 ± 0.017 | 0.122 ± 0.014 | 0.0527 ± 0.0015
OSHN BONE | 0.9227 ± 0.006 | 0.923 ± 0.011 | 0.943 ± 0.013 | 0.937 ± 0.018 | 0.921 ± 0.018 | 0.232 ± 0.071 | 0.123 ± 0.0085 | 0.108 ± 0.0066 | 1.02 ± 0.019 | 1.01 ± 0.011 | 1.01 ± 0.016 | 1.02 ± 0.02 | 1.01 ± 0.018 | 0.966 ± 0.013 | 0.247 ± 0.005 | 0.115 ± 0.0046
PCI30 HEADNECK | 0.915 ± 0.067 | 0.972 ± 0.059 | 1.01 ± 0.12 | 1.09 ± 0.029 | 0.302 ± 0.031 | 0.134 ± 0.019 | 0.0433 ± 0.0093 | 0.0393 ± 0.0015 | 0.829 ± 0.026 | 0.895 ± 0.025 | 1.01 ± 0.07 | 0.945 ± 0.03 | 0.813 ± 0.013 | 0.64 ± 0.064 | 0.202 ± 0.005 | 0.145 ± 0.0085
RDES SOFT TISSUE | 0.776 ± 0.22 | 0.784 ± 0.055 | 0.674 ± 0.081 | 0.692 ± 0.18 | 0.745 ± 0.11 | 0.992 ± 0.26 | 0.335 ± 0.042 | 0.16 ± 0.0035 | 1.12 ± 0.12 | 1.21 ± 0.03 | 1.17 ± 0.2 | 1.12 ± 0.13 | 0.438 ± 0.22 | 0.0573 ± 0.0031 | 0.399 ± 0.021 | 0.218 ± 0.014
S68 BREAST | 0.8 ± 0.19 | 0.706 ± 0.12 | 0.126 ± 0.0072 | 0.0657 ± 0.0075 | 0.0677 ± 0.0091 | 0.064 ± 0.0044 | 0.057 ± 0.0079 | 0.0607 ± 0.0047 | 0.923 ± 0.097 | 0.998 ± 0.14 | 1.37 ± 0.22 | 1.04 ± 0.29 | 0.934 ± 0.22 | 0.731 ± 0.079 | 0.337 ± 0.099 | 0.209 ± 0.03
SAOS2 BONE | 0.829 ± 0.046 | 0.775 ± 0.01 | 0.859 ± 0.099 | 0.77 ± 0.073 | 0.215 ± 0.031 | 0.0823 ± 0.004 | 0.069 ± 0.0087 | 0.0783 ± 0.0058 | 0.98 ± 0.038 | 0.902 ± 0.077 | 0.946 ± 0.073 | 0.8803 ± 0.0075 | 1.06 ± 0.097 | 1.11 ± 0.05 | 0.763 ± 0.016 | 0.488 ± 0.018

— the supplement of paper PMC6045584
